Type in all cases: in vitro ADME
Data set [1] in a line: Stability of peptides in simulated intestinal fluid (pH 7.5). To be noted: pH 7.5; for % degradation of peptides in 24 h when incubated with simulated intestinal fluid: 2 μM. An outline of the steps:
(§1)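 Peptides at 2 μM final incubated 0–24 h at 37 °C (50 mM triethanolamine-HCl, pH 7.8) in each matrix, matrix level set to degrade ~50% PTH(1-34) in 1 h; TFA-quenched, C18 HPLC at 206 nm with ESI-MS peak identification; percent degradation from peak areas at each time point.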

Data set [2] can be described thus: Stability of peptides in simulated gastric fluid (pH 1.5; HCl, NaCl and Pepsin). As to conditions: pH 1.5; for % degradation of peptides in 24 h when incubated with simulated gastric fluid: 2 μM.
The nature of data set [3]: Stability of peptides in human plasma. To be noted: human, plasma; for metabolised at 24 h, 2 μM: pH 7.8. An outline of the steps: as §1
Data set [4] can be described thus: Stability of peptides in human liver microsomes. To be noted: human, microsomes; for % degradation of peptides in 24 h when incubated with liver microsomes: 2 μM, pH 7.8. An outline of the steps: as §1

Where a SMILES comes first, the peptide text is derived from it. [ ]: non-standard residue; d: D form. ξ: configuration not given here. ξαMeBip(2'-Et,4'-OMe) = CCc1cc(OC)ccc1-c1ccc(CC(C)(N)C(=O)O)cc1; ξBip(2'-Et-4'-OMe) = CCc1cc(OC)ccc1-c1ccc(CC(N)C(=O)O)cc1; αMePhe(2,6-F2) = C[C@](N)(Cc1c(F)cccc1F)C(=O)O; ξαMePhe(2,6-F2) = CC(N)(Cc1c(F)cccc1F)C(=O)O; αMePhe(2-F) = C[C@](N)(Cc1ccccc1F)C(=O)O; ξαMe(hhPhe) = CC(N)(CCCc1ccccc1)C(=O)O; ξαMePhe(2-F) = CC(N)(Cc1ccccc1F)C(=O)O; hhPhe = N[C@@H](CCCc1ccccc1)C(=O)O; hArg = N=C(N)NCCCC[C@H](N)C(=O)O; Cit = NC(=O)NCCC[C@H](N)C(=O)O; ξαMeNle = CCCCC(C)(N)C(=O)O; ξαMeV = CC(C)C(C)(N)C(=O)O; Nle = CCCC[C@H](N)C(=O)O; Orn = NCCC[C@H](N)C(=O)O; Ac5c = NC1(C(=O)O)CCCC1; Aib = CC(C)(N)C(=O)O

Take `CCCC[C@H](NC(=O)[C@](C)(Cc1c(F)cccc1F)NC(=O)[C@H](CCC(N)=O)NC(=O)[C@@H](NC(=O)[C@H](CCC(=O)O)NC(=O)C(C)(C)NC(=O)[C@@H](NC(=O)C1(N)CCCC1)C(C)C)[C@@H](C)CC)C(=O)N[C@@H](Cc1c[nH]cn1)C(=O)N[C@@H](CCC(N)=O)C(=O)N[C@@H](CCCCNC(=N)N)C(=O)NC(C)(C)C(=O)N[C@@H](CCCCN)C(=O)N[C@@](C)(Cc1ccccc1F)C(N)=O` [Seq. ID. 85] (H-[Ac5c]V[Aib]EIQ[αMePhe(2,6-F2)][Nle]HQ[hArg][Aib]K[αMePhe(2-F)]-NH2): the half-life in data set [1] (simulated gi fluid), in data set [2] (simulated gi fluid) and in data set [4] was 30 min throughout. Further, the “% degradation of peptides in 24 h when incubated with simulated intestinal fluid” value (“% degradation … with simulated intestinal fluid” below) in data set [1] is listed as 100%. Further, in data set [2], the “% degradation of peptides in 24 h when incubated with simulated gastric fluid” value (“% degradation … with simulated gastric fluid” for short) is given as 100%. Also, the “half-life (t1/2) in human plasma” value in data set [3] was “(9) h”. In addition, the metabolised at 24 h, 2 μM in data set [3] stood at 77%. For the same compound, in data set [4], the “% degradation of peptides in 24 h when incubated with liver microsomes” value (shortened to “% degradation … with liver microsomes”) is 100%.
With `CCCC[C@H](NC(=O)C(C)(Cc1ccccc1F)NC(=O)[C@H](CCC(N)=O)NC(=O)[C@@H](NC(=O)[C@H](CCC(=O)O)NC(=O)C(C)(C)NC(=O)[C@@H](NC(=O)C1(N)CCCC1)C(C)C)[C@@H](C)CC)C(=O)N[C@@H](Cc1c[nH]cn1)C(=O)N[C@@H](CCC(N)=O)C(=O)N[C@@H](CCCN)C(=O)N[C@@H](C)C(=O)NC(C)(Cc1c(F)cccc1F)C(=O)NC(C)(Cc1ccccc1F)C(N)=O` (some centres unmarked) [Seq. ID. 315] (H-[Ac5c]V[Aib]EIQ[ξαMePhe(2-F)][Nle]HQ[Orn]A[ξαMePhe(2,6-F2)][ξαMePhe(2-F)]-NH2), the half-life in data set [1] (simulated gi fluid), in data set [2] (simulated gi fluid) and in data set [4] was 30 min throughout. In data set [1], the “% degradation … with simulated intestinal fluid” value was 100%. Besides, in data set [2], the “% degradation … with simulated gastric fluid” value was 100%. Further, in data set [3], the “half-life (t1/2) in human plasma” value is on record as “(9) h”. In data set [3], the metabolised at 24 h, 2 μM was 71%. The “% degradation … with liver microsomes” value in data set [4] is given as 100%.
`CCCCC(C)(NC(=O)[C@H](CC(C)C)NC(=O)[C@H](CCC(N)=O)NC(=O)[C@@H](NC(=O)[C@H](CCC(=O)O)NC(=O)C(C)(C)NC(=O)[C@@H](NC(=O)C(C)(C)NC(=O)[C@@H](N)C(C)C)C(C)C)[C@@H](C)CC)C(=O)N[C@@H](Cc1c[nH]cn1)C(=O)N[C@@H](CCC(N)=O)C(=O)N[C@@H](CCCCNC(=N)N)C(=O)N[C@@H](C)C(=O)N[C@@H](CCCCNC(=N)N)C(=O)NC(C)(Cc1ccc(-c2ccc(OC)cc2CC)cc1)C(=O)N[C@@H](CCCc1ccccc1)C(N)=O` (some centres unmarked) [Seq. ID. 915] (H-V[Aib]V[Aib]EIQL[ξαMeNle]HQ[hArg]A[hArg][ξαMeBip(2'-Et,4'-OMe)][hhPhe]-NH2): the half-life in data set [1] (simulated gi fluid), in data set [2] (simulated gi fluid) and in data set [4] was 30 min in each case. Besides, the “% degradation … with simulated intestinal fluid” value in data set [1] is recorded as 100%. In data set [2], the “% degradation … with simulated gastric fluid” value is 100%. Moreover, the “half-life (t1/2) in human plasma” value in data set [3] is reported as “(9) h”. Besides, the metabolised at 24 h, 2 μM in data set [3] was 80%. For the same compound, in data set [4], the “% degradation … with liver microsomes” value is recorded as 100%.
`CCCC[C@H](NC(=O)[C@H](CC(C)C)NC(=O)[C@H](CCC(N)=O)NC(=O)[C@@H](NC(=O)[C@H](CCC(=O)O)NC(=O)C(C)(C)NC(=O)[C@@H](NC(=O)C1(NC(=O)C(C)(N)C(C)C)CCCC1)C(C)C)[C@@H](C)CC)C(=O)N[C@@H](Cc1c[nH]cn1)C(=O)N[C@@H](CCC(N)=O)C(=O)N[C@@H](CCCCNC(=N)N)C(=O)N[C@@H](C)C(=O)N[C@@H](CCCCN)C(=O)NC(Cc1ccc(-c2ccc(OC)cc2CC)cc1)C(=O)NC(C)(CCCc1ccccc1)C(N)=O` (some centres unmarked) [Seq. ID. 895] (H-[ξαMeV][Ac5c]V[Aib]EIQL[Nle]HQ[hArg]AK[ξBip(2'-Et-4'-OMe)][ξαMe(hhPhe)]-NH2) gave a half-life in data set [1] (simulated gi fluid) greater than 1440 min. Besides, the “% degradation … with simulated intestinal fluid” value in data set [1] was 00%. Also, the “% degradation … with simulated gastric fluid” value in data set [2] is on record as 00%. This compound also came in with a half-life in data set [2] (simulated gi fluid) greater than 1440 min. In data set [3], this compound displayed a half-life greater than 1440 min and a metabolised at 24 h, 2 μM of 0%. Moreover, in data set [4], the “half-life (t1/2) in liver microsomes” value is recorded as “(5) h” and the “% degradation … with liver microsomes” value worked out at 33%.
`CCCC[C@H](NC(=O)C(C)(Cc1ccccc1F)NC(=O)[C@H](CCC(N)=O)NC(=O)[C@@H](NC(=O)[C@H](CCC(=O)O)NC(=O)C(C)(C)NC(=O)[C@@H](NC(=O)C(C)(C)N)C(C)C)[C@@H](C)CC)C(=O)N[C@@H](Cc1c[nH]cn1)C(=O)N[C@@H](CCC(N)=O)C(=O)N[C@@H](CCCNC(N)=O)C(=O)N[C@@H](C)C(=O)N[C@@H](CCCNC(N)=O)C(=O)NC(C)(Cc1ccccc1F)C(N)=O` (some centres unmarked) [Seq. ID. 345] (H-[Aib]V[Aib]EIQ[ξαMePhe(2-F)][Nle]HQ[Cit]A[Cit][ξαMePhe(2-F)]-NH2): the half-life in data set [1] (simulated gi fluid), in data set [2] (simulated gi fluid) and in data set [4] was 30 min throughout. In addition, the “% degradation … with simulated intestinal fluid” value in data set [1] is reported as 100%. Besides, the “% degradation … with simulated gastric fluid” value in data set [2] is 100%. Besides, in data set [3], the “half-life (t1/2) in human plasma” value was “(9) h”. The same compound displayed a metabolised at 24 h, 2 μM in data set [3] of 70%. Further, the “% degradation … with liver microsomes” value in data set [4] is reported as 100%.
`CCCC[C@H](NC(=O)C(C)(Cc1c(F)cccc1F)NC(=O)[C@H](CCC(N)=O)NC(=O)[C@@H](NC(=O)[C@H](CCC(=O)O)NC(=O)C1(NC(=O)[C@@H](NC(=O)C2(N)CCCC2)C(C)C)CCCC1)[C@@H](C)CC)C(=O)N[C@@H](Cc1c[nH]cn1)C(=O)N[C@@H](CCC(N)=O)C(=O)N[C@@H](CCCCNC(=N)N)C(=O)N[C@@H](C)C(=O)N[C@@H](CCCCN)C(=O)NC(C)(Cc1c(F)cccc1F)C(N)=O` (some centres unmarked) [Seq. ID. 115] (H-[Ac5c]V[Ac5c]EIQ[ξαMePhe(2,6-F2)][Nle]HQ[hArg]AK[ξαMePhe(2,6-F2)]-NH2): in data set [1] (simulated gi fluid), the “half-life (t1/2) in simulated intestinal fluid” value is on record as “(6) h”. For the same compound, in data set [1], the “% degradation … with simulated intestinal fluid” value is recorded as 55%. In data set [2], the “% degradation … with simulated gastric fluid” value is 12%. Moreover, the “half-life (t1/2) in simulated gastric fluid” value in data set [2] (simulated gi fluid) is “(8) h”. In data set [3], this compound showed a half-life of 480 min and a metabolised at 24 h, 2 μM of 78%. In addition, in data set [4], the half-life came to 60 min and the “% degradation … with liver microsomes” value amounted to 79%.
For `CCCC[C@H](NC(=O)[C@](C)(Cc1c(F)cccc1F)NC(=O)[C@H](CCC(N)=O)NC(=O)[C@@H](NC(=O)[C@H](CCC(=O)O)NC(=O)C(C)(C)NC(=O)[C@@H](NC(=O)C(C)(C)N)C(C)C)[C@@H](C)CC)C(=O)N[C@@H](Cc1c[nH]cn1)C(=O)N[C@@H](CCC(N)=O)C(=O)N[C@@H](CCCNC(N)=O)C(=O)NC(C)(C)C(=O)N[C@@](C)(Cc1c(F)cccc1F)C(=O)N[C@@](C)(Cc1c(F)cccc1F)C(N)=O` [Seq. ID. 390] (H-[Aib]V[Aib]EIQ[αMePhe(2,6-F2)][Nle]HQ[Cit][Aib][αMePhe(2,6-F2)][αMePhe(2,6-F2)]-NH2), the half-life in data set [1] (simulated gi fluid) is greater than 1440 min; in data set [2] (simulated gi fluid) it was 240 min; in data set [3], greater than 1440 min; in data set [4], 120 min. Besides, in data set [1], the “% degradation … with simulated intestinal fluid” value is given as 00%. Also, the “% degradation … with simulated gastric fluid” value in data set [2] was 55%. In data set [3], the metabolised at 24 h, 2 μM is 0%. The “% degradation … with liver microsomes” value in data set [4] came out at 84%.

The values above are taken from US8383581B2, “Short-chain peptides as parathyroid hormone (PTH) receptor agonist” (Cadila Healthcare Limited, priority 2009, dated 2013).
